Assay results: patent EP0162545A2, “Enhanced bioconversion processes” (BETZ EUROPE, INC., priority 1984, dated 1985)

Experiments:
Assay type in all cases: cell-based
Klebsiella [1] = experiment: Dissolved oxygen removal in nutrient broth; conditions: 5 hours
Experimental: Experiments to look at the above conclusions in depth were performed. In these experiments, cultures of Klebsiella were challenged with various concentrations of BNS and the effects on C02 evolution from glucose, viability, TOC (Total Organic Carbon), TIC (Total Inorganic Carbon) production, removal, and DO (Dissolved Oxygen) removal were determined. Concentrations of BNS from 0.05 to 100 µg/mL were used. […] CO2 evolution decreased after 5 gg/mL. […] The viability dropped off after that with 99% inhibition at concentrations somewhere between 10 - 20 µg/mL. Organic carbon removal gave the most puzzling pattern. […] CO2 was produced, however, as reflected by the C02 blowoff experiments and the TIC data. The organic carbon being oxidized (removed) must have been cancelled out by an organic carbon addition caused by limited bacterial lysis. This phenomenon was investigated again. […]
The experiments coordinating the measurements of C02 evolution, TOC reduction, viable count, and dissolved oxygen (DO) reduction were performed as follows: C02 evolution by Klebsiella was measured as described previously using a narrowed set of BNS concentrations. […] These cells were used to inoculate 19 mL quantities of fresh nutrient broth (1 mL inoculum) in baffled shake flasks. […]

Klebsiella [2] = tested on: Klebsiella
Experimental: At 0.05 µg/mL level, TOC removal was equivalent to the untreated control. When BNS concentrations of 0.5 µg/mL were used, TOC removal ceased and in the second series of experiments, TOC levels increased sharply at 0.5 - 2 µg/mL concentrations of BNS. Similar results were obtained when BNS was used to treat bacteria growing in the glucose salts medium. No increases in TOC removal were seen. The TOC concentration increased rapidly at BNS concentration of 0.5 - 2 ppm only to fall back to control levels at 5 ppm. The cells then added TOC to the medium again from […] concentrations of BNS. This middle range spike in TOC (0.5-2 µg/mL BNS) was thought to be caused by excessive extra cellular polymer sloughing and limited cellular death as evidenced by the viability counts in the. 0.5 - 2 µg/mL BNS range. […] The dissolved oxygen concentration was decreased in the presence of BNS at concentrations of 0.05 - 1 µg/mL but at no concentration of BNS was the removal greater than the control level.
This set of experiments tends to make the BNS range of useful concentrations even lower than noted before. […] DO removal was seriously affected by concentrations of BNS that were ≥ 0.5 µg/mL. In short, it would appear that BNS would have to be used at concentrations ≤ 0.5 µg/mL in order to prevent the upset of a waste treatment facility by killing off the microbial populations. […]

Klebsiella [3] = experiment: CO2 evolution from 14C-D-glucose, second series; set-up: Cumulative Growth Index Reading (CO2 Blowoff) 0 HR: scale not given here
Experimental: Experiments to look at the above conclusions in depth were performed. In these experiments, cultures of Klebsiella were challenged with various concentrations of BNS and the effects on C02 evolution from glucose, viability, TOC (Total Organic Carbon), TIC (Total Inorganic Carbon) production, removal, and DO (Dissolved Oxygen) removal were determined. Concentrations of BNS from 0.05 to 100 µg/mL were used. […] CO2 evolution decreased after 5 gg/mL. […] The viability dropped off after that with 99% inhibition at concentrations somewhere between 10 - 20 µg/mL. Organic carbon removal gave the most puzzling pattern. […] CO2 was produced, however, as reflected by the C02 blowoff experiments and the TIC data. The organic carbon being oxidized (removed) must have been cancelled out by an organic carbon addition caused by limited bacterial lysis. This phenomenon was investigated again. […] It appeared that 5 ppm BNS would be the maximum concentration that could be used for the desired effect, with the majority of favorable results occurring in the 0.05 - 2 ppm range.
The experiments coordinating the measurements of C02 evolution, TOC reduction, viable count, and dissolved oxygen (DO) reduction were performed as follows: C02 evolution by Klebsiella was measured as described previously using a narrowed set of BNS concentrations. At the same time, Klebsiella cells grown overnight in nutrient broth were standardized into an inoculum of 250 Klett units. These cells were used to inoculate 19 mL quantities of fresh nutrient broth (1 mL inoculum) in baffled shake flasks. These shake flasks were placed into water bath shakers at 37°C and allowed to shake for 5 hours. Concentrations of BNS equivalent to the C02 blowoff experiment were added to the flasks at the beginning of the experiment. Controls containing no BNS were included for comparisons. Total organic carbon measurements were taken after 5 hours incubation. Viable counts were done at 1 hour, 3 hours, and 5 hours. A parallel experiment was performed using the same setup except that after BNS additions, the flasks were shaken for 30 minutes and then held stationary. DO measurements were taken at 5 hours incubation with the use of a YSI Model 54A oxygen meter.

## O=[N+]([O-])C(Br)=Cc1ccccc1 [BNS, beta-bromo-beta-nitrostyrene]
Klebsiella [1]
  concentrations at which oxygen was consumed at levels approaching control values: up to 2 ppm
Klebsiella [2]
  concentrations seriously affecting DO removal: ≥ 0.5 µg/mL
  toxic concentration: 0.5 to 1 µg/mL
Klebsiella [3]; BNS 0.05 μg/mL
  Cumulative Growth Index Reading (CO2 Blowoff) 0 HR: 2
  Cumulative Growth Index Reading (CO2 Blowoff) 0.5 HR: 762
  Cumulative Growth Index Reading (CO2 Blowoff) 1 HR: 1,082
  Cumulative Growth Index Reading (CO2 Blowoff) 3 HR: 1,642
  Cumulative Growth Index Reading (CO2 Blowoff) 5 HR: 2,012
Klebsiella [3]; BNS 0.1 μg/mL
  Cumulative Growth Index Reading (CO2 Blowoff) 0 HR: 2
  Cumulative Growth Index Reading (CO2 Blowoff) 0.5 HR: 877
  Cumulative Growth Index Reading (CO2 Blowoff) 1 HR: 1,197
  Cumulative Growth Index Reading (CO2 Blowoff) 3 HR: 1,797
  Cumulative Growth Index Reading (CO2 Blowoff) 5 HR: 2,197
Klebsiella [3]; BNS 0.5 μg/mL
  Cumulative Growth Index Reading (CO2 Blowoff) 0 HR: 1
  Cumulative Growth Index Reading (CO2 Blowoff) 0.5 HR: 801
  Cumulative Growth Index Reading (CO2 Blowoff) 1 HR: 1,121
  Cumulative Growth Index Reading (CO2 Blowoff) 3 HR: 1,761
  Cumulative Growth Index Reading (CO2 Blowoff) 5 HR: 2,201
Klebsiella [3]; BNS 1.0 μg/mL
  Cumulative Growth Index Reading (CO2 Blowoff) 0 HR: 1
  Cumulative Growth Index Reading (CO2 Blowoff) 0.5 HR: 761
  Cumulative Growth Index Reading (CO2 Blowoff) 1 HR: 1,091
  Cumulative Growth Index Reading (CO2 Blowoff) 3 HR: 1,741
  Cumulative Growth Index Reading (CO2 Blowoff) 5 HR: 2,201
Klebsiella [3]; BNS 2 μg/mL
  Cumulative Growth Index Reading (CO2 Blowoff) 0 HR: 2
  Cumulative Growth Index Reading (CO2 Blowoff) 0.5 HR: 752
  Cumulative Growth Index Reading (CO2 Blowoff) 1 HR: 1,072
  Cumulative Growth Index Reading (CO2 Blowoff) 3 HR: 1,732
  Cumulative Growth Index Reading (CO2 Blowoff) 5 HR: 2,212
Klebsiella [3]; BNS 5 μg/mL
  Cumulative Growth Index Reading (CO2 Blowoff) 0 HR: 0
  Cumulative Growth Index Reading (CO2 Blowoff) 0.5 HR: 750
  Cumulative Growth Index Reading (CO2 Blowoff) 1 HR: 1,032
  Cumulative Growth Index Reading (CO2 Blowoff) 3 HR: 1,570
  Cumulative Growth Index Reading (CO2 Blowoff) 5 HR: 1,980
Klebsiella [3]; BNS 10 μg/mL
  Cumulative Growth Index Reading (CO2 Blowoff) 0 HR: 2
  Cumulative Growth Index Reading (CO2 Blowoff) 0.5 HR: 682
  Cumulative Growth Index Reading (CO2 Blowoff) 1 HR: 952
  Cumulative Growth Index Reading (CO2 Blowoff) 3 HR: 1,392
  Cumulative Growth Index Reading (CO2 Blowoff) 5 HR: 1,662
Klebsiella [3]; BNS 20 μg/mL
  Cumulative Growth Index Reading (CO2 Blowoff) 0 HR: 1
  Cumulative Growth Index Reading (CO2 Blowoff) 0.5 HR: 451
  Cumulative Growth Index Reading (CO2 Blowoff) 1 HR: 616
  Cumulative Growth Index Reading (CO2 Blowoff) 3 HR: 916
  Cumulative Growth Index Reading (CO2 Blowoff) 5 HR: 1,101
Klebsiella [3]; BNS 50 μg/mL
  Cumulative Growth Index Reading (CO2 Blowoff) 0 HR: 1
  Cumulative Growth Index Reading (CO2 Blowoff) 0.5 HR: 271
  Cumulative Growth Index Reading (CO2 Blowoff) 1 HR: 381
  Cumulative Growth Index Reading (CO2 Blowoff) 3 HR: 651
  Cumulative Growth Index Reading (CO2 Blowoff) 5 HR: 876
Klebsiella [3]; BNS 100 μg/mL
  Cumulative Growth Index Reading (CO2 Blowoff) 0 HR: 2
  Cumulative Growth Index Reading (CO2 Blowoff) 0.5 HR: 97
  Cumulative Growth Index Reading (CO2 Blowoff) 1 HR: 202
  Cumulative Growth Index Reading (CO2 Blowoff) 3 HR: 287
  Cumulative Growth Index Reading (CO2 Blowoff) 5 HR: 365
